Measured values published in US20160022710A1, “PRENATAL AND LACTATION SUPPLEMENTS TO ENHANCE CENTRAL NERVOUS SYSTEM DEVELOPMENT OF OFFSPRING” (ABBOTT LABORATORIES, priority 2013, published 2016).

Assay: carotenoids in neonatal brain samples
Conditions: neonatal brain samples studied by the Applicants

For `CC(C)=CCC/C(C)=C/C=C/C(C)=C/C=C/C(C)=C/C=C/C=C(C)/C=C/C=C(C)/C=C/C=C(\C)CCC=C(C)C` [lycopene], the “carotenoid occurrence in neonatal brain samples” value was “very few neonatal brain samples are found to contain detectable levels”.

In the case of `CC1=CC(O)CC(C)(C)[C@H]1/C=C/C(C)=C/C=C/C(C)=C/C=C/C=C(C)/C=C/C=C(C)/C=C/C1=C(C)C[C@@H](O)CC1(C)C` (stereo partly drawn) [trans-lutein], the “carotenoid occurrence in neonatal brain samples” value is reported as “predominant carotenoid in the majority of neonatal brain samples”.
